Measurements from US20130158063A1, “Compounds, Compositions and Methods Related to PPAR Antagonists” (GEORGETOWN UNIVERSITY, priority 2010, published 2013).
“Also recorded” adds a separate entry of the source.

Assays:
[1] = system: Mouse mammary tumor cell lines MC, 437T, 105T and 34T; Comma1D mammary epithelial cell line; experiment: Cytotoxicity against mammary cell lines; assay type: cell-based; details: 0-25 μM BTB07995, with and without GW501516
Source text: Mouse mammary tumor cell lines MC, 437T, 105T and 34T were generated from primary DMBA-induced tumors in wild-type FVB, MMTV-Pax8PPARγ transgenic, Sca-1 null and Sca-1+/EGFP mice. Comma1D is an immortalized mammary epithelial cell line.

PPARδ [2] = molecular target: T1, PPARδ (Homo sapiens, UniProt Q03181); details: cited from earlier work
T1 construct: purchased Cayman Chemicals
T1 sequence (Q03181 1-441): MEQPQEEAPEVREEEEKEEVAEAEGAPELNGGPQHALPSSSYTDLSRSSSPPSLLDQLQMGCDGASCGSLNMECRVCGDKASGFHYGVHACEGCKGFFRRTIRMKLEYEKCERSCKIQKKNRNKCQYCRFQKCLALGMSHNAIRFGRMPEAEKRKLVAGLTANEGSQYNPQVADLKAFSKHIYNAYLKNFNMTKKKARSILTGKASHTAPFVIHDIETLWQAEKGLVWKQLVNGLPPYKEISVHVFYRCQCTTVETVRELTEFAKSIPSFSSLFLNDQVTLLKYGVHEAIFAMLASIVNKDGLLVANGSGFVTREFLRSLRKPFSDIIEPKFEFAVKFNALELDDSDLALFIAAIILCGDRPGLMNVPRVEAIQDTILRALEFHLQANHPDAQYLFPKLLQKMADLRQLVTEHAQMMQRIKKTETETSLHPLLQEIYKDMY

PPARα, PPARγ, PPARδ = experiment: PPAR reporter assays, isotype profile over the three PPARs; details: for PPAR isotype selectivity in reporter assays: inhibition of activation by 1 μM agonist
PPARα [3] = molecular target: T2, PPARα (Homo sapiens, UniProt Q07869); experiment: Fluorescent Polarization (FP) binding assay with corepressor peptides, PPARα; details: Nb = no binding
T2 construct: purchased Cayman Chemicals
T2 sequence (Q07869 239-466 limits assumed): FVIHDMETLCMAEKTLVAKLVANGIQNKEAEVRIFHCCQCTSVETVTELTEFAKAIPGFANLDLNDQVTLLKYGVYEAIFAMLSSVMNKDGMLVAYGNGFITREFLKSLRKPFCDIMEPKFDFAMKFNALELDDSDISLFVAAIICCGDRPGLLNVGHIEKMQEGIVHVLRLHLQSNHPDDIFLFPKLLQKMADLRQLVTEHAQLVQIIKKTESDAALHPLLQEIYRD
Experimental: (§1) For PPARγ screening, a fluorescent ligand supplied by Cayman Chemicals was also used. All compounds were dissolved in DMSO as 10 mM stock solutions and the final DMSO content in the assay was <1%. A TECAN Ultra 485 multi-functional microplate reader and GraphPad prism 4 software were used for measurements and analysis, respectively.
(§2) PPAR antagonists are expected to enhance the affinities of the corepressor peptides, and therefore, FP should increase as the compound concentration increases. Agonists would be expected to weaken the affinity of the same co-repressor peptide. Although this effect occurs for PPARγ, the dissociation of corepressor peptides varies for PPARα and PPARδ due to altered presentations of the overlapping coactivator/corepressor binding surfaces (Stanley T. B. et al. Biochemistry 42:9278-87, 2003). Compounds were screened initially against PPARγ and PPARδ at 1 and 100 μM. If binding was observed, titration experiments from 10 nM to 100 μM were carried out in triplicate with all three PPARs. […] For screening, either enhancement or weakening of FP was considered active.
(§3) Virtual screening for PPARγ was conducted against 56,000 compounds from the Maybridge library that targeted the ligand binding domain (LBD) of PPARγ, and 10 conformations of each compound were docked to the LBD using Autdock4 software (Scripps Institute). Sixty of the top ranked compounds were ordered from Maybridge, and 58 were available for evaluation. Fluorescent Polarization (FP) assays were established with the tagged co-repressor peptides NCoR1 and SMRT, the recombinant PPARα and PPARγ ligand-binding domains and full-length PPARδ. […] Sd-107 and its analogs are disclosed herein. The chemical structure is shown below.

PPARγ [4] = molecular target: T3, PPARγ (Homo sapiens, UniProt P37231); experiment: Fluorescent Polarization (FP) binding assay with corepressor peptides, PPARγ; details: FP assay; Nb = no binding; read-out: Binding assay EC50, γ
T3 construct: purchased Cayman Chemicals
T3 sequence (P37231 238-503 limits assumed): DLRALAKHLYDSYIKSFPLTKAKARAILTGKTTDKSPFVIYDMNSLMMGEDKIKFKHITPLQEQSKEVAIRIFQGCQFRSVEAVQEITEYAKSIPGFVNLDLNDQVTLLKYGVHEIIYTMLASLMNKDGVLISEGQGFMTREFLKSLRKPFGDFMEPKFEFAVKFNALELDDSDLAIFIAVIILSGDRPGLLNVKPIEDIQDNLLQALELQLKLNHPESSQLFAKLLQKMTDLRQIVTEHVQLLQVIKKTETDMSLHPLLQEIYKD
Experimental: as §1, §2, §3

PPARδ [5] = molecular target: T1, PPARδ; experiment: Fluorescent Polarization (FP) binding assay with corepressor peptides, PPARδ; details: Nb = no binding
Experimental: as §1, §2, §3

PPARα [6] = experiment: PPAR reporter assay in 293T cells, PPARα (agonist WY14643); assay type: cell-based; details: 1 μM agonist WY14643
PPARγ [7] = molecular target: T4, PPARγ (Mus musculus, UniProt P37238); experiment: PPAR reporter assay in 293T cells, PPARγ (agonist GW7845); assay type: cell-based; details: HEK-293T, 1 μM agonist GW7845, 293T cells, read-out: Reporter assay (% inhibition), γ
T4 construct: expressed in transfected cells; host or cells: 293T cells
T4 sequence (P37238 1-505): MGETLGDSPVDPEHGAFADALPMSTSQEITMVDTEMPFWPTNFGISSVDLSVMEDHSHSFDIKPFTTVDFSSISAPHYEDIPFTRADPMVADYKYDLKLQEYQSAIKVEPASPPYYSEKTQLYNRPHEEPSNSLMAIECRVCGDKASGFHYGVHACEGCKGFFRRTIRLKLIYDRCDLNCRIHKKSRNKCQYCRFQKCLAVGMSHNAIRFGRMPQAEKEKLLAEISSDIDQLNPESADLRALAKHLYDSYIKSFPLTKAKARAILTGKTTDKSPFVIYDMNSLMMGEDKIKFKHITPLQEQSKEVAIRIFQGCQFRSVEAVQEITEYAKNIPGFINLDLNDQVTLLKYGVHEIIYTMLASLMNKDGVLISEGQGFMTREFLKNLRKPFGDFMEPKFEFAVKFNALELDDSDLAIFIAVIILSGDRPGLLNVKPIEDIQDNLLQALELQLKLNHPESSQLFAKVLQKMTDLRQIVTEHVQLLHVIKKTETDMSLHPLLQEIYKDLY

PPARδ [8] = experiment: PPAR reporter assay in 293T cells, PPARδ (agonist GW501516); assay type: cell-based; details: 1 μM agonist GW501516

Compound | Cytotoxicity to mouse mammary cell lines [1] | PPARδ ligand potency and selectivity (literature) (PPARδ [2]) | Agonist activity in Gal4-mPPAR reporter assays (PPARα, PPARγ, PPARδ; 293T cells, 24 hr, absence of specific ligand) | PPAR isotype selectivity in reporter assays (PPARα, PPARγ, PPARδ) | Binding assay EC50, α (PPARα [3]) | EC50 (PPARγ [4]) | Binding assay EC50, δ (PPARδ [5]) | Reporter assay (% inhibition), α (PPARα [6]; 1 μM compound) | Reporter assay (% inhibition), α (PPARα [6]; 10 μM compound) | Reporter assay (% inhibition), α (PPARα [6]; 25 μM compound) | inhibition at 1 µM (PPARγ [7]; 1 μM compound) | inhibition at 10 µM (PPARγ [7]; 10 μM compound) | inhibition at 25 µM (PPARγ [7]; 25 μM compound) | Reporter assay (% inhibition), δ (PPARδ [8]; 1 μM compound) | Reporter assay (% inhibition), δ (PPARδ [8]; 10 μM compound) | Reporter assay (% inhibition), δ (PPARδ [8]; 25 μM compound) | PPAR inhibitor type (Table 1) (PPARα, PPARγ, PPARδ; from reporter data)
O=C(NCCS(=O)(=O)c1ccc(C(F)(F)F)cn1)c1ccc(Cl)cc1 [BTB07995, reference compound] | not cytotoxic | potent and selective ligand for PPARδ | not an agonist for PPARα, PPARδ and PPARγ | PPARδ selectivity at lower concentrations; also recorded: selective antagonist of PPARδ | – | – | – | – | – | – | – | – | – | – | – | – | –
O=C1NN(c2cccc(F)c2)C(=O)/C1=C\c1ccc(-c2ccc(S(=O)(=O)Nc3ncco3)cc2)o1 [Sd-107-10] | – | – | – | greatest selectivity for PPARγ | nb | 560 nM | δ nb | 0% | 0% | 20% | 0% | 40% | 85% | 0% | 0% | 10% | PPARγ inhibitor
